Test results published in article PMC10913051, “Bacterial Lactonases ZenA with Noncanonical Structural Features Hydrolyze the Mycotoxin Zearalenone” (ACS Catalysis, 2024).

What was measured:
[1] = target: T1, ZenAScfl H286Y (Streptomyces coelicoflavus, UniProt A0A6N9UBA7, H286Y); assay: X-ray crystal structure, cocrystallized with […] ZEN, […] Å; format: binding
T1 construct: gene G3I46_00910; C-terminal 6xHis-tag

[2] = target: T2, ZenARe; assay: X-ray crystal structure (cocrystallized with ZEN, […] Å); stopped-flow tryptophan fluorescence of product binding ([…] °C, KP,net); set-up: species or system Rhodococcus erythropolis
T2 construct: gene zenA; C-terminal 6xHis-tag

[3] = target: T2, ZenARe; assay: stopped-flow tryptophan fluorescence ([…] °C, net dissociation constant of two-step binding); steady-state KM […]; set-up: species or system Rhodococcus erythropolis
[4] = target: the molecule itself; assay: SEC-MALS; size exclusion chromatography and multiangle light scattering of the 6xHis-tagged enzyme; conditions in the Supporting Information

T1 sequence (A0A6N9UBA7 entry or part of it H286Y): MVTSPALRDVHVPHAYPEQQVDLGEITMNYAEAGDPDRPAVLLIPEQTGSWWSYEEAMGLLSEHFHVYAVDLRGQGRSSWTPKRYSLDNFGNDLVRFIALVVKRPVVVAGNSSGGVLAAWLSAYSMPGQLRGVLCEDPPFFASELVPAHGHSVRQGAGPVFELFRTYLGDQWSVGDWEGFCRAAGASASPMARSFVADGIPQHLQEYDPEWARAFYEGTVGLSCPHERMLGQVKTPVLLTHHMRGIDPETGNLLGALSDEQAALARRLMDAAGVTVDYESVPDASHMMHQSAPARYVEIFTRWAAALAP

C[C@H](O)CCCC(=O)CCC/C=C/c1cc(O)cc(O)c1C(=O)O [HZEN, (S,E)-2,4-dihydroxy-6-(10-hydroxy-6-oxoundec-1-en-1-yl)benzoic acid]
X-ray crystal structure, cocrystallized with 5 mM ZEN, 1.53 Å [1]: a subsequently calculated Polder map revealed a better fit of product HZEN in the active site
Kd [2]: 10 ± 1 µM

C[C@H]1CCCC(=O)CCC/C=C/c2cc(O)cc(O)c2C(=O)O1 [ZEN, (S,E)-14,16-dihydroxy-3-methyl-3,4,5,6,9,10-hexahydro-1H-benzo[c][1]oxacyclotetradecine-1,7(8H)-dione]
Kd [3]: 0.21 ± 0.04 µM

B1: ZEN lactonase ZenARe of Rhodococcus erythropolis PFA D8-1 (enzyme)
chain: MAEEGTRSEAADAATQARQLPDSRNIFVSHRFPERQVDLGEVVMNFAEAGSPDNPALLLLPEQTGSWWSYEPVMGLLAENFHVFAVDIRGQGRSTWTPRRYSLDNFGNDLVRFIALVIKRPVVVAGNSSGGLLAAWLSAYAMPGQIRAALCEDAPFFASELVPAYGHSVLQAAGPAFELYRDFLGDQWSIGDWKGFVEAAKASPAKAMQLFPTPDEAPQNLKEYDPEWGRAFFEGTVALHCPHDRMLSQVKTPILITHHARTIDPETGELLGALSDLQAEHAQDIIRSAGVRVDYQSHPDALHMMHLFDPARYAEILTSWSATLPAND
stoichiometry N [4]: 2

B2: ZEN lactonase ZenA_(Scfl) of Streptomyces coelicoflavus (enzyme)
chain: MVTSPALRDVHVPHAYPEQQVDLGEITMNYAEAGDPDRPAVLLIPEQTGSWWSYEEAMGLLSEHFHVYAVDLRGQGRSSWTPKRYSLDNFGNDLVRFIALVVKRPVVVAGNSSGGVLAAWLSAYSMPGQLRGVLCEDPPFFASELVPAHGHSVRQGAGPVFELFRTYLGDQWSVGDWEGFCRAAGASASPMARSFVADGIPQHLQEYDPEWARVFYEGTVGLSCPHERMLGQVKTPVLLTHHMRGIDPETGNLLGALSDEQALRARRLMDSAGVTVDYESVPDASHMMHQSAPARYVEIFTRWAAALAP
stoichiometry N [4]: 4
